Among the data in patent US20260115170A1, “Method of Ameliorating a Symptom or a Disease in a Human Caused by Fungus” (ISHIHARA SANGYO KAISHA, LTD., priority 2020, published 2026) are MFC and MIC values, retold here.

In brackets after ≈: the same amount, converted by molar mass.

By MIC is commonly meant the lowest concentration that inhibits growth of the organism. Read a low MIC as a more susceptible organism.

What all share (type): cell-based
The subject of test [1] is Trichophyton rubrum (ATCCMYA4607). Put plainly: Test Example 5 antifungal activity test, minimum fungicidal concentration (MFC100) by treatment time. On the procedure:
(§1) Test Microbial Strains: Trichophyton rubrum (ATCCMYA4607), and Microsporum canis (IFM63627)
(§2) Trichophyton rubrum was cultured in a Sabouraud medium and Microsporum canis was cultured in a 1/10 Sabouraud medium, at 32° C. for 168 hours to form spores. For Trichophyton rubrum, hyphae were peeled off from the surface of the medium and recovered in a tube, physiological saline (Otsuka Normal Saline; containing 9 g of sodium chloride in 1000 mL) was added, these were wholly admixed using a disposable loop (type 1 (1 μL)) for dispersion, and a spore suspension containing the hyphae was recovered. For Microsporum canis, 10 mL of physiological saline was added directly onto the medium, and the surface was rubbed using a disposable loop to recover a spore suspension containing hyphae. The spore suspensions containing the hyphae of Trichophyton rubrum and Microsporum canis, respectively, were filtered through a cell strainer (\40 μm). The spores were recovered from the filtrate by centrifugation (3500 rpm, 5 minutes) and washed twice with physiological saline, and then a spore suspension was prepared (1×10^7 spores/mL). 10 μL of the spore suspension was inoculated into 90 μL of physiological saline to which test compound dissolved in DMSO was added to have a predetermined concentration. Every time a predetermined time elapsed, 10 μL of a test liquid containing the spores was collected, the spores were recovered by centrifugation (3500 rpm, 5 minutes) and washed twice with physiological saline, and then a 10 μL spore suspension was prepared. The 10 μL spore suspension was spotted onto a Sabouraud medium and subjected to culturing at 32° C. for 72 hours, the presence or absence of colony growth was investigated, and the minimum fungicidal concentration (MFC100) was determined.

Test [2] has as its system Microsporum canis (IFM63627). Described as above. On the procedure: as §1, §2
Test [3] concerns Trichophyton rubrum (ATCCMYA4607). Put plainly: Test Example 4 antifungal activity test, minimum inhibitory concentration (MIC100). Conditions: Sabouraud medium, 32° C. for 72 hours. On the procedure: as §1
(§3) The antifungal activity was studied by partially modifying the method of Test Example 2. Trichophyton rubrum was cultured in a Sabouraud medium and Microsporum canis was cultured in a 1/10 Sabouraud medium, at 32° C. for 168 hours to form spores. For Trichophyton rubrum, hyphae were peeled off from the surface of the medium and recovered in a tube, physiological saline (Otsuka Normal Saline; containing 9 g of sodium chloride in 1000 mL) was added, these were wholly admixed using a disposable loop (type 1 (1 μL)) for dispersion, and a spore suspension containing the hyphae was recovered. […] The spore suspensions containing the hyphae of Trichophyton rubrum and Microsporum canis, respectively, were filtered through a cell strainer ((40 μm). The spores were recovered from the filtrate by centrifugation (3500 rpm, 5 minutes) and washed twice with physiological saline, and then a spore suspension was prepared (1×10^7 spores/mL). 10 μL of the spore suspension was inoculated into a Sabouraud medium to which the test compound dissolved in DMSO was added to have a predetermined concentration. Trichophyton rubrum, Microsporum canis was cultured at 32° C. for 72 hours, then the presence or absence of colony growth was investigated, and the minimum inhibitory concentration (MIC100) was determined.

Test [4] relates to Microsporum canis (IFM63627). Described as above. Conditions: Sabouraud medium, 32° C. for 72 hours. On the procedure:
as §1, §3

The subject of test [5] is Malassezia restricta (IFM55992). As to the kind of experiment: Test Example 3-2 antifungal activity test, minimum fungicidal concentration after 1 minute. Particulars: 1 minute contact, MLNA medium, 32° C. for 72 hours, read-out: Minimum fungicidal concentration (MFC100). On the procedure: Test Microbial Strain: Malassezia restricta (IFM55992) The Malassezia microbe (Malassezia restricta) cultured in a CHROMagar™ Malassezial Candida Prepared medium (peptone, special enzyme substrate mixture, chloramphenicol, olive oil, agar, manufactured by Kanto Chemical Co., Inc.) for 5 to 7 days was suspended in physiological saline, and a suspension thereof was prepared in such a way as to have an absorbance of 0.025 at 600 nm. Thereto, the test compound dissolved in DMSO was added in such a way as to provide a final concentration of 200, 100, 50, or 25 ppm, and after 1 minute, 10 μL of the suspension and 10 mL of physiological saline were placed in a syringe and stirred, and the syringe was connected to a 37 mm Quality Monitor (manufactured by Pall Corporation) followed by filtration and washing twice with 10 ml of physiological saline. The membrane filter was removed from the Quality Monitor, placed on a Leeming & Notman agar Modified medium (MLNA medium) (peptone, glucose, yeast extract, dried bovine bile, glycerol, glycerin stearate, Tween60, olive oil, agar), and subjected to culturing at 32° C. for 72 hours, the presence or absence of colony growth was investigated, and the minimum fungicidal concentration MFC100) was determined.

In test [6] the test system is Malassezia furfur (IFM 55951). As to the kind of experiment: Test Example 3-1 antifungal activity test, minimum fungicidal concentration after 1 minute. Particulars: 1 minute contact, CHROMagar medium, 32° C. for 72 hours, read-out: Minimum fungicidal concentration (MFC100). On the procedure: (§4) Test Microbial Strains: Malassezia furfur (IFM 55951), Malassezia sympodialis (IFM 48588), and Malassezia globosa (IFM 51946) The Malassezia microbe (Malassezia furfur, Malassezia sympodialis, or Malassezia globosa) cultured in a CHROMagar™ Malassezia/Candida Prepared medium (peptone, special enzyme substrate mixture, chloramphenicol, olive oil, agar, manufactured by Kanto Chemical Co., Inc.) for 5 to 7 days was suspended in physiological saline, and a suspension thereof was prepared in such a way as to have an absorbance of 0.025 at 600 nm. Thereto, the test compound dissolved in DMSO was added in such a way as to provide a final concentration of 200, 100, 50, or 25 ppm, and after 1 minute, 10 μL of the suspension and 10 mL of physiological saline were placed in a syringe and stirred, and the syringe was connected to a 37 mm Quality Monitor (manufactured by Pall Corporation) followed by filtration and washing twice with 10 mL of physiological saline. The membrane filter was removed from the Quality Monitor, placed on a CHROMagar™ Malassezial Candida Prepared medium, and was subjected to culturing at 32° C. for 72 hours, the presence or absence of colony growth was investigated, and the minimum fungicidal concentration (MFC100) was determined.

Test [7] relates to Malassezia sympodialis (IFM 48588). Described as above. Conditions: 1 minute contact, CHROMagar medium, 32° C. for 72 hours, read-out: Minimum fungicidal concentration (MFC100). On the procedure:
as §4

Test [8] deals with Malassezia globosa (IFM 51946). The test is described as above. Particulars: 1 minute contact, CHROMagar medium, 32° C. for 72 hours, read-out: Minimum fungicidal concentration (MFC100). On the procedure:
as §4

`Cc1ccc(-c2nc(C#N)[nH]c2Cl)cc1Cl` [Compound No. 6, 5-Chloro-4-(3-chloro-4-methylphenyl)-1H-imidazole-2-carbonitrile]: the MFC in test [1] (Treatment time 1 Hour) was 50 µg/mL (≈ 198 µM); in test [1] (Treatment time 48 Hours), 10 µg/mL (≈ 39.7 µM); in test [1] (Treatment time 72 Hours) it was 5 µg/mL (≈ 19.8 µM); in test [2] (Treatment time 24 Hours), 50 µg/mL (≈ 198 µM); in test [2] (Treatment time 96 Hours), 10 µg/mL (≈ 39.7 µM); in test [5], 200 µg/mL (≈ 793 µM). In addition, the MFC in test [6], in test [7] and in test [8] was 50 µg/mL (≈ 198 µM) in each case. Further, the MIC in test [3] and in test [4] was 5 µg/mL (≈ 19.8 µM) throughout.
